Assays:
5-HT1AR = target: T1, 5-HT1AR (Homo sapiens, UniProt P08908); assay: Radioligand binding assay (RBA), 5-HT1AR; settings: ± SD; displacement of [3H]-8-OHDPAT, HEK-293 cells; read-out: Ki 5-HT1A (converted)
T1 construct: expressed in transfected cells; host or cells: HEK-293
T1 sequence (P08908 1-422): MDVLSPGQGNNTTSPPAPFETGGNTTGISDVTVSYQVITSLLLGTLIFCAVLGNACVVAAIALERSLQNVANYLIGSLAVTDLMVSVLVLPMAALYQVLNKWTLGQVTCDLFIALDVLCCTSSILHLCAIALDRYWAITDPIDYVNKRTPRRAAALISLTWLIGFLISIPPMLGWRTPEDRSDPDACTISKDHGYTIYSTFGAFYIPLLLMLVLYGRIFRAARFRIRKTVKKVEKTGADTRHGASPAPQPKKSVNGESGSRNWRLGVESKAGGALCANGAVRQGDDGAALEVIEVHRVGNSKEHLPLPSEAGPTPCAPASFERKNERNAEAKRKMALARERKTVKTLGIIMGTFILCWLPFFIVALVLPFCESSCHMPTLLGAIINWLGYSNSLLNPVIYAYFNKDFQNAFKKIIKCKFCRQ
Procedure: The cells used in the radioligand binding assays receptor 5-HT1A were stably expressed in HEK-293 cells. Transfections were performed with the use of Lipofectamine 2000. The binding procedure was accomplished via the displacement of 2.5 nM [^3H]-8-OHDPAT (135.2 Ci/mmol) for 5-HT1AR. Each compound was tested in triplicate in seven to eight different concentrations (10^−11 to 10^−4 M). The inhibition constants (Ki) were calculated using the Cheng–Prusoff equation [45] and the results are expressed as the mean of at least two independent experiments.

rats = assay: Elevated plus-maze (EPM) test; format: in vivo, rat; settings: for Open Arms % of entries / Open Arms % of time / Open Arms Distance / Open Arms Entries / Open Arms Time: mean ± SEM
From the text: The testing procedure was based on a method described by. Plus-maze apparatus (an automated device produced by Campden Instruments Ltd. (Leicestershire, UK) made of durable, high density, non-porous black plastic, elevated to a height of 50 cm, consisted of two open arms (50 × 10 cm) and two closed arms (50 × 10 cm, and 30 cm high walls), arranged so that the two arms of each type were opposite each other. The floor of the plus-maze was made of infrared transparent material what means that there are no visible sensors. Plus-maze apparatus was connected to PC software by control chassis. The experiments were conducted in a darkened room, only the center of the maze was illuminated with low-intensity light (30 lux measured on the maze level). Each rat was gently placed in the center of the plus-maze, facing one of the closed arms, immediately after a 5-min adaptation period in a plastic black box (60 × 60 × 35 cm), to increase the overall activity in the EPM. During a 5-min test period, automated Motor Monitor System recorded the number of entries into the closed and open arms and the time spent in either type of arms. The device counted an effective arm-entry when the four paws of a rat were into any arm. The maze was thoroughly cleaned after each trial. The EPM test is an “unconditional” anxiety-like test based on rodents’ natural aversion to heights and open space.

dopaminergic receptor D2 = settings: ± SD; cited from earlier work
[1] = system: MK-801-induced memory deficits in rats; assay: Novel object recognition (NOR) test, MK-801-induced memory impairment; format: in vivo, rat; settings: for Total Exploratory Time in T2 Session: mean ± SEM; for minimal effective dose in NOR test: i.p., reversal of MK-801-induced memory impairment
Procedure: Five days before the experiment, the rats were transferred to the laboratory, labelled and, thereafter, left to acclimate to the new environment. The animals were handling every five days before experiments to minimize the stress reaction. The protocol was adapted from the original work. The test session comprising of two trials separated by an inter-trial interval (ITI) of 1 h was carried out after 2 days of the training session. During the first trial (familiarization, T1) two identical objects (A1 and A2) were presented in the opposite corners of the open field, approximately 10 cm from the walls. During the second trial (recognition, T2) one of the A objects was replaced by a novel object B, so that the animals were presented with the A = familiar and B = novel objects. Both trials lasted for 3 min and the animals were returned to their home cages after T1.
The objects used were the metal Coca-Cola cans and the glass jars filled with sand. […] The sequence of presentations and the location of the objects were randomly assigned to each rat. After each measurement, the floor was cleaned and dried.
The animals explored the objects by looking, licking, sniffing or touching the object but not when leaning against, standing or sitting on the object. Any rat exploring the two objects for less than 5 s within 3 min of T1 or T2 was eliminated from the study. The exploration time of the objects was measured by a blind experimenter. Based on the exploration time (E) of two objects during T2, the discrimination index (DI) was calculated according to the formula: DI = (EB − EA)/(EA + […]). Using this metric, scores approaching zero reflects no preference while positive values reflect a preference for the novel object and negative numbers reflect a preference for the familiar.
MK-801, used to attenuate learning, was administered at the dose of 0.1 mg/kg (i.p.) 30 min before the familiarization phase (T1), while investigated compounds were given 60 min before T1 session. In such scheme of experiment we could observe the impact of investigated compounds on the one type of rats’ memory—episodic memory and one phase of memory process—[…].
The total exploration time in T2 was used to express the influence of the treatment on the exploratory activity of the animals.

[2] = 0.3 mg/kg i.p. + MK-801 0.1 mg/kg
[3] = 1 mg/kg i.p. + MK-801 0.1 mg/kg
[4] = 3 mg/kg i.p. + MK-801 0.1 mg/kg

In the case of CCC(Oc1cccc(Cl)c1Cl)c1nc(N)nc(N2CCN(C)CC2)n1 (racemic) [Compound 2, (RS)-4-[1-(2,3-dichlorophenoxy)propyl]-6-(4-methylpiperazin-1-yl)-1,3,5-triazin-2-amine], the Ki (5-HT1AR) is reported as 0.521 µM, the “Open Arms % of entries” value (rats; 0.3 mg/kg i.p.) is reported as 23.97 ± 4.97% and the “Open Arms % of time” value (rats; 0.3 mg/kg i.p.) is reported as 14.85 ± 3.30%. For the same compound, the “Open Arms Distance” value (rats; 0.3 mg/kg i.p.) was 423 ± 87 cm, the “Open Arms Entries” value (rats; 0.3 mg/kg i.p.) was 6.50 ± 1.60 and the “Open Arms Time” value (rats; 0.3 mg/kg i.p.) was 36.85 ± 8.90 s. The “Open Arms % of entries” value (rats; 1 mg/kg i.p.) was 26.53 ± 3.69%, the “Open Arms % of time” value (rats; 1 mg/kg i.p.) was 10.10 ± 1.20% and the “Open Arms Distance” value (rats; 1 mg/kg i.p.) was 279 ± 45 cm. For the same compound, the “Open Arms Entries” value (rats; 1 mg/kg i.p.) was 5.86 ± 0.90, the “Open Arms Time” value (rats; 1 mg/kg i.p.) was 24.75 ± 3.19 s and the “increase of distance travelled in the open arms vs vehicle” value (rats; 3 mg/kg i.p.) was 134%. The “increase of number of open-arm entries vs vehicle” value (rats; 3 mg/kg i.p.) was 160%, the “increase of percentage of time spent in open arms vs vehicle” value (rats; 3 mg/kg i.p.) was 137% and the “increase of time spent in the open arms vs vehicle” value (rats; 3 mg/kg i.p.) was 120%. The “Open Arms % of entries” value (rats; 3 mg/kg i.p.) was 41.89 ± 3.37%, the “Open Arms % of time” value (rats; 3 mg/kg i.p.) was 30.00 ± 3.60% and the “Open Arms Distance” value (rats; 3 mg/kg i.p.) was 914 ± 126 cm. The “Open Arms Entries” value (rats; 3 mg/kg i.p.) was 13.00 ± 2.30, the “Open Arms Time” value (rats; 3 mg/kg i.p.) was 72.23 ± 7.30 s and the “increase of percentage of entries into open arms vs vehicle” value (rats; 3 mg/kg i.p., not significant) was 68%. The “dose with anxiolytic-like activity in EPM test” value (rats; i.p.) was 3 mg/kg, the Ki (dopaminergic receptor D2) was 0.421 µM and the “Total Exploratory Time in T2 Session” value [1, 2] was 52.67 ± 5.37 s. For the same compound, the “Total Exploratory Time in T2 Session” value [1, 3] was 40.33 ± 6.66 s, the “Total Exploratory Time in T2 Session” value [1, 4] was 42.88 ± 2.10 F(4,27) = 3.5450; p < 0.05 s and the “minimal effective dose in NOR test” value [1] was 0.3 mg/kg.
For CCC(Oc1ccccc1)c1nc(N)nc(N2CCN(C)CC2)n1 (racemic) [Compound 3, (RS)-4-(4-methylpiperazin-1-yl)-6-(1-phenoxypropyl)-1,3,5-triazin-2-amine], the Ki (5-HT1AR) was 3.64 µM, the “Open Arms % of entries” value (rats; 0.3 mg/kg i.p.) was 28.54 ± 6.70% and the “Open Arms % of time” value (rats; 0.3 mg/kg i.p.) was 9.84 ± 1.50%. The “Open Arms Distance” value (rats; 0.3 mg/kg i.p.) was 340 ± 59 cm, the “Open Arms Entries” value (rats; 0.3 mg/kg i.p.) was 5.28 ± 0.42 and the “Open Arms Time” value (rats; 0.3 mg/kg i.p.) was 24.27 ± 3.41 s. The “Open Arms % of entries” value (rats; 1 mg/kg i.p.) was 33.64 ± 2.70%, the “Open Arms % of time” value (rats; 1 mg/kg i.p.) was 18.30 ± 4.10% and the “Open Arms Distance” value (rats; 1 mg/kg i.p.) was 646 ± 145 cm. For the same compound, the “Open Arms Entries” value (rats; 1 mg/kg i.p.) was 8.43 ± 1.36, the “Open Arms Time” value (rats; 1 mg/kg i.p.) was 44.24 ± 9.71 s and the “Open Arms % of entries” value (rats; 3 mg/kg i.p.) was 24.39 ± 7.60%. The “Open Arms % of time” value (rats; 3 mg/kg i.p.) was 7.03 ± 2.00%, the “Open Arms Distance” value (rats; 3 mg/kg i.p.) was 231 ± 87 cm and the “Open Arms Entries” value (rats; 3 mg/kg i.p.) was 4.17 ± 1.10. The “Open Arms Time” value (rats; 3 mg/kg i.p.) was 19.00 ± 5.50 s, the “anxiolytic-like activity in EPM test” value (rats; i.p., 60 min before test) was “did not show anxiolytic-like activity” and the Ki (dopaminergic receptor D2) was 1.51 µM. The “Total Exploratory Time in T2 Session” value ([1]; 0.1 mg/kg i.p. + MK-801 0.1 mg/kg) was 47.33 ± 4.79 s, the “Total Exploratory Time in T2 Session” value [1, 2] was 38.14 ± 4.18 s and the “Total Exploratory Time in T2 Session” value [1, 3] was 35.57 ± 3.76 s. For the same compound, the “Total Exploratory Time in T2 Session” value [1, 4] was 34.14 ± 1.22; F(5,47) = 1.9394; NS s and the “minimal effective dose in NOR test” value [1] was 0.1 mg/kg.

— publication PMC8509428, “The Phenoxyalkyltriazine Antagonists for 5-HT6 Receptor with Promising Procognitive and Pharmacokinetic Properties In Vivo in Search for a Novel Therapeutic Approach to Dementia Diseases” (International Journal of Molecular Sciences, 2021)
